Reference: paper PMC9220351, “Evaluation of a Conformationally Constrained Indole Carboxamide as a Potential Efflux Pump Inhibitor in Pseudomonas aeruginosa” (Antibiotics, 2022)

Test system: P. aeruginosa ATCC 27853 inner membrane potential
Assay: DiOC2 (3) membrane polarization assay
Assay type: cell-based, Pseudomonas aeruginosa
Conditions: Pseudomonas aeruginosa, ATCC27853; read-out: IC50 (DiOC2 (3) membrane polarization, Figure 4A)
Procedure: RND efflux pumps couple the influx of protons from the proton gradient across the inner membrane to the efflux of drugs and other molecules. […] The effect of TXA09155 on the proton gradient of P. aeruginosa was assessed with a fluorescence-based 3,3′-diethyloxacarbocyanine iodide [DiOC2 (3)] assay that was developed to measure membrane potential changes in Gram-negative bacteria. DiOC2 (3) is a positively charged fluorescent dye that accumulates within cells in a charge-dependent manner, shifting its fluorescence spectrum from green to red at high concentrations due to concentration-dependent dye stacking. […] Azithromycin and CCCP were used as […] controls, respectively.
P. aeruginosa membrane polarization assays were conducted as described previously using strain ATCC 27853. […] DiOC2 (3) fluorescence was recorded in a microplate reader using 450 nm excitation and 670 nm emission (for red fluorescence). Background correction for each concentration of each compound was obtained from reading the fluorescence of compounds in the resuspension buffer without cells. After background correction, fluorescence was normalized to that of the vehicle (DMSO) only. After a 30 min incubation at 37 °C, DiOC2 (3) fluorescence was recorded using a SpectraMax iD5 spectrophotometer (Molecular Devices, San Jose, CA, USA) following excitation at 450 nm. […]

## N#CC(C#N)=NNc1cccc(Cl)c1 [CCCP, Carbonyl cyanide 3-chlorophenylhydrazone]
  IC50: 15 nM
